From a melting point compilation (Tetko et al.; mined from patent text by program, amines drawn as free bases though some values may be those of a salt)

Compared with Cc1oc(-c2ccccc2)nc1COc1ccc(Cc2nc(CCC(=O)O)c(-c3ccccc3)o2)cc1, O=C(Cc1ccccc1)N[C@@H](Cc1ccc(OCCc2coc(-c3ccccc3)n2)cc1)C(=O)O is higher in melting point: 136 to 137 °C for the first, 146 to 151 °C for the second.

Compared with O=[N+]([O-])c1cc(OCc2ccccc2)ccc1CCO, OCc1ccc(OCc2ccccc2)cc1O is higher in melting point: 48 to 52 °C for the first, 88 to 90 °C for the second.

First: COc1ccc2c(=O)cc(-c3n[nH]c4ccccc34)oc2c1
Second: COc1ccc2cc(-c3cnc(Cc4ccccc4)o3)ccc2c1
The melting point of the first is higher: 218 to 220 °C for the first, 122 to 124 °C for the second.

Compared with CCCCC(CO)Nc1ccc([N+](=O)[O-])cc1C(=O)NCc1ccc2c(c1)OCO2 (stereo not given), CS(=O)(=O)Nc1ccc([N+](=O)[O-])cc1C(=O)c1ccc(F)cc1F is higher in melting point: 112 to 115 °C for the first, 172 to 178 °C for the second.

Compared with O=C1N(N2CCOCC2)c2ccccc2C1(Cc1ccccn1)Cc1ccccn1, Clc1ccc2c(c1)[C@@H](c1ccccc1)[C@H]1CN(Cc3ccccc3)C[C@H]1C2 (racemic) is lower in melting point: 157 to 159 °C for the first, 115 to 117 °C for the second.

First: C=C(COC1CC2C3CCC4=CC(=O)CCC4(C)C3(F)C(O)CC2(C)C1(O)C(=O)CO)c1ccccc1 (stereo not given)
Second: COC1CCC2C3CCC4=CC(=O)C(C)CC4(C)C3CCC12C (stereo not given)
The melting point of the first is higher: 169 to 171 °C for the first, 130 to 145 °C for the second.

First: CCCCCc1oc(-c2ccc(Cl)cc2)nc1CC(=O)OCC
Second: CCCCC(CC)COC(=O)C(C#N)=Cc1ccc(-c2nc3ccccc3o2)cc1 (stereo not given)
The melting point of the first is lower: 52 to 53 °C for the first, 84 to 85 °C for the second.

First: CC(C)(C)c1ccc(Cn2cnc3c(-c4ccco4)ncnc32)cc1
Second: Cn1ncnc1COc1nc2c(cnn2-c2ccccc2)cc1C(C)(C)C
The melting point of the first is higher: 185 to 187 °C for the first, 143 to 145 °C for the second.

First: O=C(C#Cc1ccc(C(F)(F)F)cc1Cl)Nc1ccc(OCCn2cnnc2)cc1
Second: Cc1ccc(NC(=O)N2CCN(C(=O)c3ccc(Nc4ccnc5cc(C(F)(F)F)ccc45)cc3)CC2)cc1
The melting point of the first is lower: 223 to 227 °C for the first, 280 to 282 °C for the second.

Compared with O=C1C(c2ccccc2)OC(=S)N1Nc1ccccc1 (stereo not given), OP(O)C(NC(c1ccccc1)c1ccccc1)c1cccnc1 (stereo not given) is lower in melting point: 140 to 141 °C for the first, 129 to 132 °C for the second.

Compared with CCOC(=O)C(C)(C)OC(=O)c1cc(-n2c(=O)cc(CC)[nH]c2=O)c(F)cc1Cl, CCC(CC)NC(=O)C(C)(C)COc1cccc2nc(C)c(C(=O)O)c(N)c12 is higher in melting point: 166 to 167 °C for the first, 172 to 174 °C for the second.

First: CCN(CC)CCCNc1ncc2cc(-c3c(Cl)cccc3Cl)c(=N)n(C)c2n1
Second: CCCCNc1nnc(NCCCC)c2cc3c(OC)cccc3cc12
The melting point of the first is lower: 154 to 156 °C for the first, 178 to 180 °C for the second.

First: CS(=O)(=O)OC[C@@H]1CN(c2ccc(O)cc2)C(=O)O1
Second: COc1ccc2c(c1)CC(COS(=O)(=O)c1ccc(C)cc1)CC2 (stereo not given)
The melting point of the first is higher: 282 to 284 °C for the first, 64 to 66 °C for the second.

First: CCCc1c(OCC(O)COc2cc(N)c(C)cc2Cl)ccc(C(C)=O)c1O (stereo not given)
Second: CC(=O)OCCCc1cc(C=C2SCN(C)C2=O)cc(CCCOC(C)=O)c1O
The melting point of the first is lower: 94 to 95 °C for the first, 112 to 116 °C for the second.

First: O=C(OC1CCCCCCCCCCC1)c1ccccc1C(=O)OC1CCCCCCCCCCC1
Second: CC(=O)OC1CCC2C3CCC4C(=O)CCCC4(C)C3CCC12C (stereo not given)
The melting point of the first is lower: 66 to 68 °C for the first, 160 to 163 °C for the second.

Compared with Cc1nn(-c2cc3[nH]c(=O)ccc3cc2F)c(=O)n1C(F)F, N#Cc1cnn(-c2ccc(C(F)(F)F)cc2[N+](=O)[O-])c1N is higher in melting point: 215 to 217 °C for the first, 234 to 236 °C for the second.

Compared with N#Cc1cn(COCCO)c2ncnc(N)c12, OCCOCCn1ccc2ncnc(Nc3ccc(OCc4cccc(F)c4)c(Cl)c3)c21 is lower in melting point: 178 °C for the first, 168 to 169 °C for the second.

Compared with COC(=O)c1cccc(-c2ccccc2OC)c1, O=C(O)c1ccc(-c2cc3ccccc3[nH]c2=S)cc1 is higher in melting point: 92 to 93 °C for the first, greater than 300 °C for the second.

Compared with CC(=O)Nc1ccc(C#CCCN2CC=C(c3ccccc3)CC2)nc1, CCCCc1ncc(CCNC(CCc2ccccc2)C(=O)O)n1Cc1ccccc1Cl (stereo not given) is lower in melting point: 158 to 160 °C for the first, 123 °C for the second.

First: CC1(C)C=C(N2CCCC2=O)c2cc(Cl)ccc2O1
Second: CC(C)N1CCc2[nH]c3ccc4scc(-c5ccccc5)c4c3c2C1
The melting point of the first is lower: 123 to 125 °C for the first, 204 °C for the second.

First: COCCOc1cc(N(C)S(=O)(=O)c2nccn2C)c2[nH]c(C(=O)O)cc2c1
Second: COCc1cc2c(C(=O)Nc3ccnn3C)ccc(OC)c2o1
The melting point of the first is higher: 174 to 175 °C for the first, 148 to 150 °C for the second.

First: COc1ccc(Cn2nc(NC(=O)c3cc(NC(=O)c4cc([N+](=O)[O-])nn4Cc4ccc(OC)cc4)nn3Cc3ccc(OC)cc3)cc2C(=O)O)cc1
Second: COC(=O)c1ccc(Cn2c(=O)c3cc(C(=O)NCc4ccc(OC)cc4)sc3n(C)c2=O)cc1
The melting point of the first is higher: 258 to 260 °C for the first, 235 to 237 °C for the second.

First: CCCCCCCCc1ccc(OCC(=O)Cn2ncc3ccccc32)cc1
Second: CCOC(=O)C(=O)CC(=O)c1cn(Cc2ccc3ccccc3n2)c2ccccc2c1=O
The melting point of the first is lower: 66 to 67 °C for the first, 237 to 238 °C for the second.

Compared with COc1cc2c(c(OS(=O)(=O)c3ccc(C)cc3)c1OC)C1=C(CCC1)C(=O)CC2, COC1=CC23CCN(C)C(Cc4ccc(OC)c(Oc5ccccc5)c42)C3=CC1C (stereo not given) is higher in melting point: 138 °C for the first, 177 to 178 °C for the second.

First: CCc1nn(C)c(N)c1Cl
Second: Cn1cnc([N+](=O)[O-])c1CBr
The melting point of the first is lower: 50 to 51 °C for the first, 130 to 132 °C for the second.

First: CC(=O)c1cc(C#N)c(=O)n(C=CN(C)C)c1
Second: COc1ccc(NC(=O)C=NO)cc1C
The melting point of the first is higher: 267 to 270 °C for the first, 163 to 165 °C for the second.

First: CC(=O)NC(C)(C)c1ccc(C(C)O)cc1 (stereo not given)
Second: CCc1ccc(NC(C)=O)cc1
The melting point of the first is higher: 146 to 149 °C for the first, 94 to 96 °C for the second.

First: O=C1CCC(N2Cc3c(OCc4ccc(Cn5cnc(C(F)(F)F)c5)cc4)cccc3C2=O)C(=O)N1 (stereo not given)
Second: CC(C)Cc1ccc(CCc2cc3c(s2)NC(=O)CN=C3c2ccccc2Cl)cc1
The melting point of the first is lower: 148 to 150 °C for the first, 179 to 181 °C for the second.

First: C=C1C[C@@H]2[C@H](CC[C@]3(C)C(=O)CC[C@@H]23)[C@@]2(C)CCC(=O)C(OC(C)=O)=C12
Second: C=CC[C@H]1C(=O)N(S(=O)(=O)c2cccc(S(=O)(=O)N(C)C)c2)[C@H]2CCN(C(=O)OCc3ccccc3)[C@H]12 (relative stereo)
The melting point of the first is higher: 183 to 185 °C for the first, 70 to 75 °C for the second.

First: COc1ccc(-n2nc(Sc3ccc(C#N)cc3)c(C)c(C#N)c2=O)cc1
Second: COc1ccc(C(=O)Nc2ccc3ccc(Cl)nc3n2)cc1
The melting point of the first is lower: 195 to 198 °C for the first, 208 °C for the second.

First: COC(=O)COC1c2ccccc2COc2ccc(OCc3ccc4cc(Cl)ccc4n3)cc21 (stereo not given)
Second: COc1ccc(O[C@H](C)C(=O)O)c(C(=O)c2ccc(OCc3nc(-c4ccccc4)oc3C)cc2)c1
The melting point of the first is higher: 144 to 147 °C for the first, 119 to 120 °C for the second.

Compared with Nc1ccc2cnc(Nc3ccc(F)cc3)nc2n1, Fc1ccc(Oc2ncc3c(-c4ccccc4Cl)n[nH]c3n2)c(F)c1 is lower in melting point: 245 to 248 °C for the first, 173 to 176 °C for the second.

First: C=CCc1cc2c(c(CC=C)c1O)N(CC=Cc1ccccc1)C(=O)CC2
Second: C=CCCCN(CCCC=C)Cc1noc(-c2ncn3c2CN(C)C(=O)c2ccccc2-3)n1
The melting point of the first is lower: 132 to 138 °C for the first, 167 to 169 °C for the second.

Compared with CN(CCc1ccccc1)C(=O)Cn1cc(C=CC(=O)N2CCCC2)c2cc(OCc3ccccc3)ccc21, COC(=O)c1ccc2oc(C(=O)C(Cc3ccccc3)NC(=O)Cn3c(-c4ccc(F)cc4)ncc(N)c3=O)nc2c1 (stereo not given) is higher in melting point: 185 to 187 °C for the first, 208 to 213 °C for the second.

First: Cc1nc(C(C)(O)c2cccs2)sc1C (stereo not given)
Second: CCCCCCC(C)(O)CCc1ccc(O)c(O)c1 (stereo not given)
The melting point of the first is higher: 129 to 130 °C for the first, 81 to 83 °C for the second.

Compared with CN(Cc1ccc(NC(=O)C2=Cc3cc(-c4cc5ccccc5s4)ccc3S(=O)(=O)CC2)cc1)C1CCOCC1, CCc1ccc2c(c1)C=Cc1cc(C)ccc1C2c1cn(-c2ccnc(NCC(=O)Nc3ncc(CC(=O)O)s3)n2)c(=O)[nH]c1=O (stereo not given) is lower in melting point: 270 to 271 °C for the first, 206 to 208 °C for the second.

First: CCOC(=O)C(Cc1ccc(OCC=C(C)c2ccc(-c3ccc(C(C)=CCOc4ccc(CC(OCC)C(=O)OCC)cc4)cc3)cc2)cc1)OCC (stereo not given)
Second: CCOP(=O)(OCC)C1(P(=O)(OCC)OCC)CC(C(=O)C(C)c2ccc(-c3ccccc3)c(F)c2)=NN1 (stereo not given)
The melting point of the first is lower: 100 to 106 °C for the first, 109 to 110 °C for the second.

First: CSc1ccccc1N1CCN(Cc2nc3ccccc3[nH]2)CC1
Second: CNC(=S)NCCSCc1nc2ccccc2[nH]1
The melting point of the first is higher: 214 to 216 °C for the first, 157 to 159 °C for the second.

First: CCCCc1csc2ccc([N+](=O)[O-])cc12
Second: CCCCCC(CC(=O)Nc1cc(C(=O)O)ccc1C(C)(C)C)c1cccc(OC)c1OC (stereo not given)
The melting point of the first is lower: 82 to 83 °C for the first, 146 to 147 °C for the second.

First: COc1cc(Nc2c(C#N)cnc3cc(Br)sc23)c(Cl)cc1Cl
Second: S=c1nc(-c2cc(Cl)sc2Cl)[nH]n1Cc1ccccc1
The melting point of the first is higher: 228 to 229 °C for the first, 160 to 162 °C for the second.

Compared with Cn1cc([N+](=O)[O-])nc1CBr, Cn1cc(S(=O)(=O)Cl)c(=O)c2ccccc21 is higher in melting point: 130 to 132 °C for the first, 313 to 315 °C for the second.

First: C[C@@H](n1cnc2cc(C=NNS(N)(=O)=O)ccc2c1=O)[C@](O)(Cn1cncn1)c1ccc(F)cc1F
Second: CC(C(=O)O)c1ccc(-c2ccc(F)cc2Br)cc1 (stereo not given)
The melting point of the first is higher: 202 to 206 °C for the first, 77 to 79 °C for the second.

First: CC(=O)NCC1CN(c2cc(F)c(N3CCN(C(=O)COC(=O)n4ccnc4)CC3)c(F)c2)C(=O)O1 (stereo not given)
Second: COC(=O)Cn1c(=O)[nH]c2ccccc2c1=O
The melting point of the first is lower: 199 to 200 °C for the first, 205 to 206 °C for the second.

First: Cc1c(C)c2c(c(C)c1NS(=O)(=O)CCCC(F)(F)F)C(c1ccc(C(C)C)cc1)CO2 (stereo not given)
Second: COC(=O)[C@H](CSC(=O)[C@@H](C)c1ccc(CC(C)C)cc1)NC(C)=O
The melting point of the first is higher: 149 to 150 °C for the first, 75 to 77 °C for the second.

First: CC(C)(C)c1cc(-c2nn(CCCCl)c3ncccc23)cc(C(C)(C)C)c1O
Second: CC(C)(c1cc(F)cc([N+](=O)[O-])c1O)c1cc(F)cc([N+](=O)[O-])c1O
The melting point of the first is lower: 107 to 109 °C for the first, 138 °C for the second.

First: NC(=O)N(O)C[C@@H]1C[C@H]1c1cccc(Oc2ccncc2)c1 (relative stereo)
Second: CP(=O)(O)C(O)C(CN)c1ccc(Cl)cc1 (stereo not given)
The melting point of the first is lower: 130 to 132 °C for the first, 240 to 241 °C for the second.

First: CCCC=COC1OC(CO)C(O)C(O)C1NC(C)=O (stereo not given)
Second: CCCCCCCCCCC[C@@H](C[C@@H]1OC(=O)[C@H]1CCCCCC)OCCC(N)=O
The melting point of the first is higher: 146 to 148 °C for the first, 35 °C for the second.

For C=CCN(CC=C)c1ccc2[nH]c3cnc(-c4nc(CC)no4)nc3c2c1, the melting point was 175 to 184 °C.
